Measured values taken from patent US8993717B2, “Gadd45beta targeting agents” (Imperial Innovations Limited, priority 2009, dated 2015).
Square brackets hold non-standard residues; d marks the D form. Peptide text beside a SMILES is read from it. * marks the point of attachment. Cbz = O=C(OCc1ccccc1)*

What was measured:
[1] = system: U266, KMS-11, NCI-H929, ARH-77, JJN-3, KMS-12, KMS-18, KMS-27 cells; test: [3H]thymidine incorporation assay, panel of 8 sensitive multiple myeloma cell lines; type: cell-based, human; conditions: treatment for 144 hrs; read-out: IC50s ranging over the sensitive multiple myeloma cell lines
Protocol: Cultures of multiple myeloma cells and treatments with Z-DTPs were carried out as described in Example 8 (see below). The effects of Z-DTPs on the survival/proliferation of multiple myeloma cells were evaluated by the use of [^3H]thymidine) incorporation assays, performed as also described in Example 8. The amount of cell proliferation measured with each of the Z-DTPs' concentrations used and with the untreated cultures (i.e. cultures incubated with medium alone), was expressed as counts per minute (c.p.m.)—which directly correlate with the extent of cell proliferation. All experiments were performed in triplicate.

[2] = target: T1, kinase domain of MKK7 (MKK7KD) (Homo sapiens, UniProt O14733, S271D/T275D); test: Surface Plasmon Resonance, immobilized MKK7KD; type: binding; conditions: 1 nM to 10 μM
T1 construct: His6; made in house; host or cells: E. coli
T1 sequence (O14733 101-405 isoform O14733-3 S287D/T291D): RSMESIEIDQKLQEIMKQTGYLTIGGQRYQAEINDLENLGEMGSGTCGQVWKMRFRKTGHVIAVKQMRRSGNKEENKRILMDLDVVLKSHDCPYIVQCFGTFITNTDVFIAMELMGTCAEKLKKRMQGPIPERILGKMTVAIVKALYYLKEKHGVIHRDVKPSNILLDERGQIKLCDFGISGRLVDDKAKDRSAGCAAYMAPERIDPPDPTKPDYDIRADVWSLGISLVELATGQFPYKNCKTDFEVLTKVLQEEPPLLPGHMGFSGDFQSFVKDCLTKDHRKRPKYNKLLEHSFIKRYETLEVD
Protocol: (§1) To determine how DTPs bind to the Gadd45 β/MKK7 complex, experiments were performed with a Biacore3000 SPR instrument (GE Healthcare, Milan, Italy), using 4-channels CM5 sensorchips (GE Healthcare, Milan, Italy). Full length human Gadd45β was prepared and purified as described in the reference by Tornatore L., et al. (2008). J Mol Biol; 378:97-111. […] The protein was purified to homogeneity by two subsequent steps of affinity chromatography (Ni-NTA support) and gel filtration (Superdex G75), and then characterized by SDS-PAGE, LC-MS to verify identity and purity, and by Circular Dichroism to assess folding.
(§2) MKK7KD was immobilized on the Biacore sensorchip via classical EDC/NHS coupling chemistry at pH 5 (protein pI, ˜9) at a flow rate of 5 uL/min An immobilization level of about 8000 Response Units was achieved. Gadd45β, which is an intrinsically acidic protein with a pI of about 4.5, was immobilized at pH 3.5 (6000 RU immobilization levels) on a separate channel. The residual reactive groups on both the Gadd45β and MKK7KD channels were finally inactivated by treatment with ethanolamine. On another channel the same procedure of activation with EDC/NHS and inactivation with ethanolamine was performed. […]

Gadd45β/MKK7 complex = target: T2, Gadd45β/MKK7 complex (Homo sapiens, UniProt O14733, S271D/T275D); test: Surface Plasmon Resonance, preformed Gadd45β/MKK7KD complex; type: binding
T2 construct: His6; made in house; host or cells: E. coli (MKK7KD)
T2 sequence (O14733 101-405 isoform O14733-3 S287D/T291D limits assumed): T1 sequence (O14733 101-405 isoform O14733-3 S287D/T291D)
Protocol: as §1, §2

SMILES	IC50 [1]	binding to MKK7KD in isolation [2]	effect on preformed Gadd45β/MKK7KD complex (Gadd45β/MKK7 complex; injected at 10 nM or 100 nM during dissociation phase)	binding to preformed Gadd45β/MKK7KD complex (Gadd45β/MKK7 complex; injected at higher concentrations (e.g. 1 μM))
NC(=O)[C@@H](Cc1ccccc1)NC(=O)[C@@H](Cc1c[nH]cn1)NC(=O)[C@@H](CC(=O)O)NC(=O)[C@@H](Cc1ccc(O)cc1)NC(=O)OCc1ccccc1 [Compound 1, Z-Tyr-Asp-His-Phe-NH2] (Cbz-[dY][dD][dH][dF]-NH2)	10.1 to 4900 nM	–	–	–
CC(=O)N[C@H](Cc1ccc(O)cc1)C(=O)N[C@H](CCCNC(=N)N)C(=O)N[C@H](Cc1ccccc1)C(N)=O [Compound 17, Ac-D-Tyr-D-Arg-D-Phe-NH2] (Ac-[dY]-[dR]-[dF]-NH2)	–	does not bind	induced a rapid dissociation of the Gadd45β/MKK7KD complex	dose-response binding and dissociation curves were recorded
